Measurements published in patent publication US20100022483A1, “Substituted Tetracycline Compounds” (Paratek Pharmaceuticals, Inc., priority 2008, published 2010).
≈ marks a conversion by molar mass, not a printed value. Where two headings read alike, the source gives them in different places.

Tests used:
gram positive bacteria = test: In vitro anti-bacterial activity assay (broth dilution MIC), gram positive bacteria; assay type: cell-based, S. aureus; conditions: 18 h
Excerpt: (§1) Bacterial infections may be caused by a wide variety of gram positive and gram negative bacteria. Some of the compounds of the invention are useful as antibiotics against organisms which are resistant and/or sensitive to other tetracycline compounds. The antibiotic activity of the tetracycline compounds of the invention may by using the in vitro standard broth dilution method described in Waitz, J. A., CLSI, Document M7-A2, vol. 10, no. 8, pp. 13-20, 2nd edition, Villanova, Pa. (1990).
(§2) The following assay was used to determine the efficacy of the tetracycline compounds against gram positive and gram negative bacteria. 2 mg of each compound was dissolved in 100 μl of DMSO. […] The tetracycline compound solutions were diluted to 50 μL volumes, with a test compound concentration of 0.098 μg/ml. Optical density (OD) determinations were made from fresh log-phase broth cultures of the test strains. Dilutions were made to achieve a final cell density of […] CFU/ml. At OD=1, cell densities for different genera were approximately:
(§3) 50 μl of the cell suspensions were added to each well of microtiter plates. The final cell density was approximately 5×10^5 CFU/ml. These plates were incubated at 35° C. in an ambient air incubator for approximately 18 hours. The plates were read with a microplate reader and were visually inspected when necessary. The MIC was defined as the lowest concentration of the tetracycline compound that inhibits growth. Table 3 includes MIC data for several substituted tetracycline compounds.

gram negative bacteria = test: In vitro anti-bacterial activity assay (broth dilution MIC), gram negative bacteria; assay type: cell-based, E. coli
Excerpt: as §1, §2, §3

[1] = Mammalian cytotoxicity assay (resazurin), COS-1 cells; assay type: cell-based; conditions: African green monkey, read-out: Cytotox. COS-1
Experimental: (§4) COS-1 and CHO-K1 cell suspensions were prepared, seeded into 96-well tissue culture treated black-walled microtiter plates (density determined by cell line), and incubated overnight at 37° C., in 5% CO2 and approximately 95% humidity. The following day, serial dilutions of compound were prepared under sterile conditions and transferred to cell plates. Cell/Compound plates were incubated under the above conditions for 24 hours. Following the incubation period, media/compound was aspirated and 50 μl of resazurin (0.042 mg/ml in PBS w/Ca and Mg) is added. The plates were then incubated under the above conditions for 2 hours and then placed in the dark at room temperature for an additional 30 minutes. Fluorescence measurements were taken (excitation 535 nm, emission 590 nm). The IC50 (concentration of compound causing 50% growth inhibition) was then calculated. Table 3 includes IC50 data for several substituted tetracycline compounds.

in vitro = assay type: cell-based; conditions: Chinese hamster, Cytotox. CHO-K1
Experimental: as §4

3T3 fibroblast cells = test: In vitro phototoxicity assay (neutral red; UV light-treated vs dark control plates); assay type: cell-based; conditions: for Photo Toxicity UV Tox50: UV light 50 minutes; for Photo Toxicity Dark Tox50: dark control plate
Experimental: 3T3 fibroblast cells were harvested and plated at a concentration of 1×10^5 cells/mL and the plates were incubated overnight at 37° C., in 5% CO2 and approximately 95% humidity. On the following day the medium was removed from the plates and replaced with Hanks' Balanced Salt Solution (HBSS). Compound dilutions were made in HBSS and added to the plates. For each compound tested, a duplicate plate was prepared that was not exposed to light as a control for compound toxicity. Plates were then incubated in a dark drawer (for controls), or under UV light (meter reading of 1.6-1.8 mW/cm^2) for 50 minutes. Cells were then washed with HBSS, fresh medium was added, and plates were incubated overnight as described above. The following day neutral red was added as an indicator of cell viability. The plates were then incubated for an additional 3 hours. Cells were then washed with HBSS and blotted on absorbent paper to remove excess liquid. A solution of 50% EtOH, 10% glacial acetic acid was added and after 20 minutes incubation the plate's absorbance at 535 nm was read using a Wallac Victor 5 spectrophotometer. The phototoxicity reflected the difference between the light-treated and control cultures. Table 3 includes phototoxicity (μM) data for several substituted tetracycline compounds.

[2] = Staphylococcus aureus, S. aureus MRSA5, read-out: Median MIC's G+ S. aureus MRSA5
[3] = Staphylococcus aureus, S. aureus RN450, read-out: Median MIC's G+ S. aureus RN450
[4] = Streptococcus pneumoniae, S. pneumoniae 157E-Strep, read-out: Median MIC's G+ S. pneumoniae 157E-Strep
[5] = Escherichia coli, 18 h, E. coli D1 209, read-out: Median MIC's G− E. coli D1 209
[6] = Escherichia coli, 18 h, E. coli MG 1655, read-out: Median MIC's G− E. coli MG 1655
[7] = Escherichia coli, ATCC25922, 18 h, E. coli ATCC 25922, read-out: Median MIC's G− E. coli ATCC 25922
[8] = Pseudomonas aeruginosa, 18 h, P. aeruginosa K201 PAO6609, read-out: Median MIC's G− P. aeruginosa K201 PAO6609

SMILES | MIC (gram positive bacteria; [2]) [µg/mL] | MIC (gram positive bacteria; [3]) [µg/mL] | MIC (gram positive bacteria; [4]) [µg/mL] | MIC (gram negative bacteria; [5]) [µg/mL] | MIC (gram negative bacteria; [6]) [µg/mL] | MIC (gram negative bacteria; [7]) [µg/mL] | MIC (gram negative bacteria; [8]) [µg/mL] | IC50 at 24 h [1] [µM] | IC50 at 24 h (in vitro) [µM] | Photo Toxicity UV Tox50 (3T3 fibroblast cells) [µM] | Photo Toxicity Dark Tox50 (3T3 fibroblast cells) [µM]
CCN(CC)CCCC(C)NC(=O)c1ccc(O)c2c1C[C@H]1C[C@H]3[C@H](N(C)C)C(O)=C(C(N)=O)C(=O)[C@@]3(O)C(O)=C1C2=O (some centres unmarked) [AI] | 64 (≈ 107 µM) | 64 (≈ 107 µM) | 64 (≈ 107 µM) | 64 (≈ 107 µM) | 64 (≈ 107 µM) | 64 (≈ 107 µM) | 64 (≈ 107 µM) | > 109 | > 109 | >108.86 | >108.86
CC(C)N(C)CC(=O)c1ccc(O)c2c1C[C@H]1C[C@H]3[C@H](N(C)C)C(O)=C(C(N)=O)C(=O)[C@@]3(O)C(O)=C1C2=O [AJ] | 0.5 (≈ 0.948 µM) | 0.06 (≈ 0.114 µM) | 0.06 (≈ 0.114 µM) | 1 (≈ 1.9 µM) | 0.25 (≈ 0.474 µM) | 0.25 (≈ 0.474 µM) | 32 (≈ 60.7 µM) | > 150 | > 150 | >149.87 | >149.87
COC(=O)C1CCN(Cc2ccc(O)c3c2C[C@H]2C[C@H]4[C@H](N(C)C)C(O)=C(C(N)=O)C(=O)[C@@]4(O)C(O)=C2C3=O)CC1 [AK] | 2 (≈ 3.51 µM) | 0.06 (≈ 0.105 µM) | 0.06 (≈ 0.105 µM) | 4 (≈ 7.02 µM) | 0.5 (≈ 0.878 µM) | 0.25 (≈ 0.439 µM) | 64 (≈ 112 µM) | > 140 | > 140 | >140.07 | >140.07
CN(C)CC(=O)N1CC=C(c2ccc(O)c3c2C[C@H]2C[C@H]4[C@H](N(C)C)C(O)=C(C(N)=O)C(=O)[C@@]4(O)C(O)=C2C3=O)CC1 [AL] | 32 (≈ 55.1 µM) | 0.5 (≈ 0.861 µM) | 0.5 (≈ 0.861 µM) | 64 (≈ 110 µM) | 16 (≈ 27.6 µM) | 16 (≈ 27.6 µM) | 64 (≈ 110 µM) | > 145 | > 145 | >145.35 | >145.35
CC(=O)Nc1cccc(-c2ccc(O)c3c2C[C@H]2C[C@H]4[C@H](N(C)C)C(O)=C(C(N)=O)C(=O)[C@@]4(O)C(O)=C2C3=O)c1 [AO] | 4 (≈ 7.31 µM) | 0.06 (≈ 0.11 µM) | 0.06 (≈ 0.11 µM) | 64 (≈ 117 µM) | 32 (≈ 58.4 µM) | 4 (≈ 7.31 µM) | 64 (≈ 117 µM) | > 16.3 | > 16.3 | >162.66 | >162.66
COc1ccc(CN(C)C)cc1-c1ccc(O)c2c1C[C@H]1C[C@H]3[C@H](N(C)C)C(O)=C(C(N)=O)C(=O)[C@@]3(O)C(O)=C1C2=O [AT] | 0.5 (≈ 0.866 µM) | 0.06 (≈ 0.104 µM) | 0.06 (≈ 0.104 µM) | 1 (≈ 1.73 µM) | 1 (≈ 1.73 µM) | 0.5 (≈ 0.866 µM) | 64 (≈ 111 µM) | > 146 | > 146 | >146.03 | >146.03
CN(C)CCC(=O)c1ccc(O)c2c1C[C@H]1C[C@H]3[C@H](N(C)C)C(O)=C(C(N)=O)C(=O)[C@@]3(O)C(O)=C1C2=O [AV] | 0.5 (≈ 0.974 µM) | 0.06 (≈ 0.117 µM) | 0.5 (≈ 0.974 µM) | 64 (≈ 125 µM) | 16 (≈ 31.2 µM) | 8 (≈ 15.6 µM) | 64 (≈ 125 µM) | > 153 | > 153 | >153.46 | >153.46
